# Results from US7199286B2, “Plant-derived novel pathogen and SAR-induction chemical induced promoters, and fragments thereof” (Syngenta Participations AG, priority 1999, dated 2007).
# Key:
# [1] = test system: NI16 RNA; assay: Induction of NI16 mRNA by SA and BTH spray, RNA blot hybridization; assay type: in vivo, Arabidopsis; conditions: WS-O plants sprayed with 5 mM SA or 300 μm BTH
# Protocol: RNA is prepared from 4 week old Wassilewskija (WS—O) plants, that are either sprayed with water, a 5 mM solution of sodium salicylate (SA), or a 300 μm solution of benzo-(1,2,3)-thiadiazole-7-carbothioic acid S-methyl ester (BTH). […] RNA extractions and RNA blot hybridizations are performed as described previously by Ausubel et al. (1987). NI16 RNA is induced 5–10 fold within 15 minutes of SA or BTH induction and reaches a peak of approximately 50 fold induction within 2 hours of SA treatment and 25 fold induction with BTH treatment.
# [2] = test system: Arabidopsis PR1 promoter; assay: GUS florescence assay of promoter::GUS plants after SA application, Arabidopsis PR1 promoter; assay type: in vivo; conditions: 5 mM SA spray
# Description: A binary promoter::reporter plasmid (pNOV2374) for Arabidopsis transformation was constructed. The regulatory/promoter sequence was fused to the GUS reporter gene (Jefferson et al. (1987) EMBO J 6: 3901-3907) by recombination using […] Technology according to the manufacturer's protocol as described in the Instruction Manual (LifeTechnologies, Rockville, Md.). The construct was then transformed into Agrobacterium tumefaciens strains by electroporation. pNOV2374 is a binary vector with a VS1 origin of replication, a copy of the Agrobacterium virg gene in the backbone, and a Basta® resistance selectable marker cassette between the left and right border sequences of the T-DNA. The Basta® selectable marker cassette comprises the Agrobacterium tumefaciens manopine synthase promoter (AtMas) (Barker et al., Plant Mol. Biol. 2, 335-350 (1983)) operably linked to the gene encoding Basta® resistance (i.e., the “BAR” gene, phosphinothricin acetyl transferase) (White et al., Nucl Acids Res 18: 1062 (1990)) and the 35S terminator. The AtMas promoter, the BAR coding sequence, and the 35S terminator are located at nt 4211 to nt 4679, nt 4680 to nt 5228, and nt 5263 to nt 5488, respectively, of pNOV2374. The vector contains […] recombination components, which were introduced into the binary vector backbone by ligating a blunt-ended cassette containing attR sites, ccdB, and a cholramphenicol resistance marker using the […] Vector Conversion System (LifeTechnologies, Rockville, Md.). The […] cassette was located between nt 126 and 1818 of pNOV2374. The promoter cassettes were inserted through an LR recombination reaction whereby the DNA sequence of pNOV2374 between nt 126 and nt 1818 were removed and replaced with the promoter of interest flanked by att sequences. […] The GIG gene (SEQ ID NO:29) contains the ST-LS1 intron from Solanum tuberosum at nt 385 to nt 576 of GUS (obtained from Dr. Stanton […], Purdue University, and described in Narasimhulu, et al. (1996) Plant Cell 8: 873-886.). The orientation of the selectable marker and promoter-reporter cassettes in the binary vector construct was as follows: For the purpose of comparing promoter activity, additional constructs were produced with the known Arabidopsis PR1 (SEQ ID NO:30) and SMAS (SEQ ID NO:31) promoters (see Plant J. 16 (2) 223-233 (1998) and Plant Mol. Biol. 20 (2) 219-233 (1992), respectively) operatively linked to the GIG gene (SEQ ID NO:29) and the […]. […] The treatment was applied as a fine mist to the leaves. […] For quantitative analysis of promoter activity following induction treatments or in various Arabidopsis tissues and organs, GUS expression is measured florometrically. Tissue samples were harvested and ground in ice cold GUS extraction buffer (50 mM Na2HPO4 pH 7.0, 5 mM DTT, 1 mM Na2EDTA, 0.1% TritonX100, 0.1% sarcosyl). Ground samples were spun in a microfuge at 10,000 rpm for 15 minutes at 4° C. Following centrifugation, the supernatant was removed for the GUS assay and for a protein concentration determination. To measure GUS activity, the plant extract was assayed in GUS assay buffer (50 mM Na2HPO4 pH 7.0, 5 mM DTT, 1 mM Na2EDTA, 0.1% TritonX100, 0.1% sarcosyl, 1 mM 4-Methylumbelliferyl-beta-D-glucuronic acid dihydrate (MUG)), pre-warmed to 37° C. Reactions were incubated, and 100 uL aliquots were removed at 10 minute intervals over 30 minutes to stop the reaction by adding the 100 uL aliquots to tubes containing 900 uL of 2% Na2CO3. The stopped reactions were then read on a Tecan Spectroflourometer at 365 nm excitation and 455 emission wavelengths. Protein concentrations were determined using the BCA assay following the manufacturer's protocol. GUS activity is expressed as pmol MU/mg protein/min.
structure (smiles),measurement,setting,value
"O=C(O)c1ccccc1O [SA, salicylic acid]",time NI16 transcript remains highly induced after treatment,[1],up to 24 hours
same,NI16 RNA peak induction,"[1]; peak, within 2 hours of SA treatment",approximately 50 fold
same,GUS Activity Induced by SA,[2]; 2 h,57.7 pmol/mg protein/min
same,GUS activity Fold-change relative to T0 (uninduced),[2]; 2 h,3.4 fold
same,GUS Activity Induced by SA,[2]; 4 h,254.7 pmol/mg protein/min
same,GUS activity Fold-change relative to T0 (uninduced),[2]; 4 h,15.2 fold
same,GUS Activity Induced by SA,[2]; 8 h,206.5 pmol/mg protein/min
same,GUS Activity Induced by SA,[2]; 24 h,393.1 pmol/mg protein/min
same,GUS activity Fold-change relative to T0 (uninduced),[2]; 24 h,23.4 fold
